Experimental data from patent US20070231838A1, “Method for the assay of rock kinase activity in cells” (priority 2006, published 2007).

Test system: ROCK kinase
Assay: Immunoblotting of MYPT1 phosphorylation in Panc-1 cells treated with ROCK inhibitors
Format: cell-based, human
Settings: for rank order of potency for reduction of MYPT1 phosphorylation: 1 h incubation, immunoblotting (FIG. 5A)
Description: FIG. 3: Extraction of cytoskeletal substrates of ROCK1/ROCK2 from Pancd cell extracts: (A) Panc-1 cells were incubated in the presence and absence of 10 μM ROCK inhibitor Y27632 for 1 h followed by lysis in the indicated buffers. Equal fractions of cell lysate were analyzed by immunoblotting for pMYPT1 (T696 or T853), total MYPT1, pMLC (S19) and total MLC. (B) 10 μL aliquots of Panc-1 cell lysate prepared in PROTEOEXTRACT® buffer (or buffer alone for control wells) were diluted in buffer A as indicated prior to addition to MYPT1 antibody-coated ELISA assay plate wells. Quantitation of the extent of MYPT1 (T853) phosphorylation was performed in triplicate assay wells as described in the methods section. Results plotted are mean signal intensities, error bars represent Standard Deviations.
FIG. 4: Time course of reduction of MYPT1 phosphorylation bv ROCK inhibitors in Pancl cells: Panc-1 cells were incubated in the presence and absence of 10 μM ROCK inhibitor Y27632 for the indicated time points followed by lysis in SDS-PAGE sample buffer. Equal fractions of cell lysate were then analyzed by immunoblotting for pMYPT1 (T696 or T853) and total MYPT1 protein.
FIG. 5: Effect of ROCK inhibitors on MYPT1 (T853) phosphorylation in Panc-1 cells: (A) Panc-1 cells were incubated in the presence and absence of the indicated concentrations of ROCK inhibitors H1152, Y27632 or HA1077 for 1 h, followed by lysis in SDS-PAGE sample buffer. Equal fractions of cell lysate were then analyzed by immunoblotting for pMYPT1 (T696 or T853) and total MYPT1 protein. (B) Panc1 cells were grown in 96-well culture plates, and incubated for 1 h with the indicated concentrations of compound ROCK inhibitors H1152, Y27632 or HA1077. Lysates were then prepared in PROTEOEXTRACT® buffer, and analyzed in the pMYPT1 (T853) ELISA assay as described in the Methods section.
Human cancer cell lines were purchased from the American Type Culture Collection (ATCC). Panc-1 cells were grown in Dulbecco's modified Eagle's medium with 2 mM L-glutamine adjusted to contain 3.7 g/L sodium bicarbonate and 4.5 g/L glucose, 10% fetal bovine serum. All other cell lines were grown in media as prescribed by the ATCC, containing 10% FCS.
Lysates were prepared from cultured cells, following a brief rinse in PBS, using several different buffers. Buffer A (50 mM Tris-HCl, pH 7.4, 150 mM NaCl, 10% glycerol, 1% Triton X-100, 0.5 mM EDTA, 1 mM […], […], lmg/ml aprotinin) and buffer B (RIPA buffer: Sigma catalog #R0278, containing protease and phosphatase inhibitor cocktails Sigma catalog #P2850, P5726 P8340) were added to the cells in culture dishes, the cells were scraped from the dish and the lysates transferred to eppendorf tubes and incubated at 4° C. for 20 min. Lysates were then clarified by centrifugation at 10,000 g, and the resulting supernatants were stored at −80° C. prior to the addition of SDS-PAGE sample buffer and analysis by immunoblotting. Alternatively, lysates were prepared by the direct addition of SDS-PAGE sample buffer to the cultures, and samples were prepared for analysis by sonication for 5 min followed by heating to 100° C. for 5 min. Alternatively, lysates were prepared by the addition of PROTEOEXTRACT® solution (complete mammalian proteome extraction kit, Calbiochem, #539779) including 16.5 IU of BENZONASE® (Novagen, Inc., Madison, Wis.) followed by shaking for 30 minutes at room temperature. Samples prepared by this method were either diluted directly into SDS-PAGE sample buffer for analysis by immunoblotting, or were diluted 10-fold in buffer A for analysis in antibody capture ELISA assays. Tumor lysates were prepared using the PROTEOEXTRACT® complete mammalian proteome extraction kit (Calbiochem, #539779). Approximately 300 mg samples of tumor sample were homogenized and dispersed in […] resuspension buffer, then 2.4 mL extraction reagent and 150 μl reducing agent were added and the samples were mixed thoroughly. […]

[1] = 10 μM for 1 h prior to lysis, immunoblotting (FIG. 3)
[2] = 10 μM, time course up to 24 h (FIG. 4)

SMILES | rank order of potency for reduction of MYPT1 phosphorylation | level of MYPT1 phosphorylation [1] | total MYPT1 protein content of the extracts [1] | incubation time necessary to maximally reduce steady-state phosphorylation of MYPT1 T696 [2] | time to maximal reduction of steady-state phosphorylation of MYPT1 (T853) [2]
O=S(=O)(c1cccc2cnccc12)N1CCCNCC1 [HA1077] | H1152>Y27632>HA1077 | – | – | – | –
C[C@@H](N)[C@H]1CC[C@H](C(=O)Nc2ccncc2)CC1 [Y27632] | H1152>Y27632>HA1077 | significantly reduced | without affecting significantly | at least 8 hours | 30 to 60 min
Cc1cncc2cccc(S(=O)(=O)N3CCCNC[C@@H]3C)c12 [H1152] | H1152>Y27632>HA1077 | – | – | – | –
